Our source for the Km values is PMC11593814, “Novel Basidiomycetous Alcohol Oxidase from Cerrena unicolor—Characterisation, Kinetics, and Proteolytic Modifications” (International Journal of Molecular Sciences, 2024).

This assay concerns T1, alcohol oxidase (AOX) from Cerrena unicolor FCL139.
T1 construct: native, semi-purified from mycelium (ammonium sulphate, HIC, SEC); octamer stated as typical; no tag
The assay is described as follows: acetylacetone assay ([…],5-diacetyl-1,4-dihydrolutidine), Michaelis-Menten non-linear fit. Particulars: semi-purified native enzyme; substrate 1-100 mM; pH and temperature of the kinetics not given. The format is biochemical.
`COc1ccc(CO)cc1OC` [Veratryl alcohol]: the Km is 31 ± 4 mM.
As to `OC[C@H](O)C(O)[C@@H](O)CO` [L-arabinitol], the Km was found to be 37 ± 3 mM.
Regarding `CO` [Methanol], the Km is 13 ± 1 mM.

In general, Km refers to the substrate concentration at which the rate is half of its maximum.
